Experiments:
Assay type in all cases: in vivo
rats [1] = assay: sub-acute toxicity, intramuscular, 2 weeks, male and female rats; settings: 150 mg/kg (5 ml/kg of 3% solution)
Experimental: Over a period of 2 weeks, 10 male rats and female rats receive 150 mg/kg of benzyl alcohol, that is to say 5 ml/kg of 3% aqueous solution by the intramuscular route. […] Within the context of the anatomopathological examination, the liver, kidneys, spleen, lungs, suprarenals, testicles and ovaries are normal.

rats [2] = assay: acute toxicity, intramuscular, rats; settings: 750 mg/kg in 3% solution (25 ml/kg)
Experimental: (§1) No mortality is observed in mice or rats treated at the rate of 750 mg/kg of benzyl alcohol in 3% solution (viz 25 ml/kg of solution) by the intramuscular route.

mice = assay: acute toxicity, intramuscular, mice; settings: 750 mg/kg in 3% solution (25 ml/kg)
Experimental: as §1

## OCc1ccccc1 [benzyl alcohol]
Rats [1]
  abnormal symptoms: No abnormal symptom appears
  anatomopathological examination (liver, kidneys, spleen, lungs, suprarenals, testicles and ovaries): normal
  haematological variations: within the limits of physiological variations
  variations in blood and urine biochemistry: within the limits of physiological variations
  variations in weight: within the limits of physiological variations
Rats [2]
  mortality: No mortality
mice
  mortality: No mortality

— patent publication US4518606A, “Pharmaceutical compositions” (Beecham Group Limited, priority 1979, dated 1985)
